Data taken from ChEMBL document CHEMBL5370608, “Selective and Bioavailable HDAC6 2-(Difluoromethyl)-1,3,4-oxadiazole Substrate Inhibitors and Modeling of Their Bioactivation Mechanism” (J Med Chem, 2023).
Values belong to the compound of their own block, whether it stands above or below them. Calls of active or inactive are those of the source. No cut-off for these calls is given here.

Columns and labels:
THP-1 = experiment: Cytotoxicity against human THP-1 cells assessed as reduction in cell viability measured upto 250 uM by alamar blue staining based assay; format: functional
[1] = molecular target: cAMP and cAMP-inhibited cGMP 3',5'-cyclic phosphodiesterase 10A (Homo sapiens) (UniProt Q9Y233); experiment: Inhibition of PDE10A2 (unknown origin) at 91 uM relative to control
cAMP and cAMP-inhibited cGMP 3',5'-cyclic phosphodiesterase 10A (Homo sapiens), sequence (Q9Y233 whole entry): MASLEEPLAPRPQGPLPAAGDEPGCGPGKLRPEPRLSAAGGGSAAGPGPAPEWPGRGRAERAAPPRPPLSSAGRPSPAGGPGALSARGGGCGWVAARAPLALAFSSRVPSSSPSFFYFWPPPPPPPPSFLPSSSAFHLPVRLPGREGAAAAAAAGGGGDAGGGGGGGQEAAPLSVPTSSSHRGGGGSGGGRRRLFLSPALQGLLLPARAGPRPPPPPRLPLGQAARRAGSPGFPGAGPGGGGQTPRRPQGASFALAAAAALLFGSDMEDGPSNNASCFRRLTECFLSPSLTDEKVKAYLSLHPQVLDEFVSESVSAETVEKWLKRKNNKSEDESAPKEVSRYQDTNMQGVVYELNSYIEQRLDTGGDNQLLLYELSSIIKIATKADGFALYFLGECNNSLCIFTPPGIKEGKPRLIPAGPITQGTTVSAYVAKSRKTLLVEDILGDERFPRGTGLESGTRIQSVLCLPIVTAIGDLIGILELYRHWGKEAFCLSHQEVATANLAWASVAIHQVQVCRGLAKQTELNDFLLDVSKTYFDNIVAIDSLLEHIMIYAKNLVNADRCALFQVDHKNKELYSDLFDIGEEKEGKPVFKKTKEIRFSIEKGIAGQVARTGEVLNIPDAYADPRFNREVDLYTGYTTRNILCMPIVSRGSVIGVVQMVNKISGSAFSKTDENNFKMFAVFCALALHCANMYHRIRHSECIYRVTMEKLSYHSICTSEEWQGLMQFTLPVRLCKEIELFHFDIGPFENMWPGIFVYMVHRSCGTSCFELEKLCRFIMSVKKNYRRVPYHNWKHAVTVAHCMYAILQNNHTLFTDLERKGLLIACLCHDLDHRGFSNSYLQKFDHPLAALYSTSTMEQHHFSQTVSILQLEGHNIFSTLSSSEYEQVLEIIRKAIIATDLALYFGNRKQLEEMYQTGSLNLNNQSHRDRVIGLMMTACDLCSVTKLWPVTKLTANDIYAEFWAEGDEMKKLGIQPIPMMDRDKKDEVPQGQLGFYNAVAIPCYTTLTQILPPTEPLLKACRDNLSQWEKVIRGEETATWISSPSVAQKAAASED

[2] = Half life in C57/BI mouse at 1 mg/kg, po measured upto 24 hrs by LC-MS/MS analysis; format: ADME, organism-based; details: in vivo
[3] = Plasma protein binding in mouse assessed as unbound fraction; format: ADME, cell-free
[4] = AUC (0 to infinity) in Wistar Han rat at 1 mg/kg, po measured upto 24 hrs by LC-MS/MS analysis; format: ADME, organism-based; set-up: time < 24 hrs, dose 1 mg/kg, route po; details: in vivo
[5] = molecular target: 3',5'-cyclic-AMP phosphodiesterase 4D (Homo sapiens) (UniProt Q08499); experiment: Inhibition of PDE4D (unknown origin) at 64 uM relative to control
3',5'-cyclic-AMP phosphodiesterase 4D (Homo sapiens), sequence (Q08499 whole entry): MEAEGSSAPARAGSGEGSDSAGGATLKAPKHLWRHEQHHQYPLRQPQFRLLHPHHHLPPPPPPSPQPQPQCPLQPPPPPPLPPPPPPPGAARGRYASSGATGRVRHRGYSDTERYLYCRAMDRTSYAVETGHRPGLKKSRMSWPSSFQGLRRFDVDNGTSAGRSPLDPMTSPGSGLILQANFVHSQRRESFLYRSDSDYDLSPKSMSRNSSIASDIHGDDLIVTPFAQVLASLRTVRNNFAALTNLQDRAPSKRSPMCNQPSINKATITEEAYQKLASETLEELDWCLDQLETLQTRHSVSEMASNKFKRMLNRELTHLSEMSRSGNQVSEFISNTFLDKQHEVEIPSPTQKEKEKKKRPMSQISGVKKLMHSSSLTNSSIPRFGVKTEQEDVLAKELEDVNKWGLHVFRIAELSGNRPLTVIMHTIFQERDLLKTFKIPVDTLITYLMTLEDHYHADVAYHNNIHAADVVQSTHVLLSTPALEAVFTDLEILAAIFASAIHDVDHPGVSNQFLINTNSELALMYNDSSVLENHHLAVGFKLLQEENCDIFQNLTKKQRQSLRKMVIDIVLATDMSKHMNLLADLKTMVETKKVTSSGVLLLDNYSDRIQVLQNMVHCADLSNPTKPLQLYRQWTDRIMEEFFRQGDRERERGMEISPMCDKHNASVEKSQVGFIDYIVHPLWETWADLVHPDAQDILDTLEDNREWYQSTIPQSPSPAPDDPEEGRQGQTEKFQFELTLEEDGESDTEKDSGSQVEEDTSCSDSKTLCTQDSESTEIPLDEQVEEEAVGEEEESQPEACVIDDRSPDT

[6] = Clearance in C57/BI mouse at 0.5 mg/kg, iv measured upto 24 hrs by LC-MS/MS analysis; format: ADME, organism-based; details: in vivo
[7] = Oral bioavailability in Wistar Han rat at 1 mg/kg measured upto 24 hrs by LC-MS/MS analysis; format: ADME, organism-based; details: in vivo
[8] = AUC (0 to infinity) in C57/BI mouse at 1 mg/kg, po measured upto 24 hrs by LC-MS/MS analysis; format: ADME, organism-based; set-up: time < 24 hrs, dose 1 mg/kg, route po; details: in vivo
[9] = molecular target: GABA-A receptor; anion channel (Homo sapiens) (UniProt P14867+P47870+P18507+P28472+P48169+Q99928+Q9UN88+P34903+O00591+O14764+Q8N1C3+P18505+P78334+P47869+P31644+Q16445); experiment: Inhibition of GABAA (unknown origin) at 34 uM relative to control; format: protein-complex assay
[10] = molecular target: T1, Protein deacetylase HDAC6 (Homo sapiens, UniProt Q9UBN7); experiment: Inhibition of HDAC6 (unknown origin) incubated for 20 hrs
T1 sequence (Q9UBN7 whole entry): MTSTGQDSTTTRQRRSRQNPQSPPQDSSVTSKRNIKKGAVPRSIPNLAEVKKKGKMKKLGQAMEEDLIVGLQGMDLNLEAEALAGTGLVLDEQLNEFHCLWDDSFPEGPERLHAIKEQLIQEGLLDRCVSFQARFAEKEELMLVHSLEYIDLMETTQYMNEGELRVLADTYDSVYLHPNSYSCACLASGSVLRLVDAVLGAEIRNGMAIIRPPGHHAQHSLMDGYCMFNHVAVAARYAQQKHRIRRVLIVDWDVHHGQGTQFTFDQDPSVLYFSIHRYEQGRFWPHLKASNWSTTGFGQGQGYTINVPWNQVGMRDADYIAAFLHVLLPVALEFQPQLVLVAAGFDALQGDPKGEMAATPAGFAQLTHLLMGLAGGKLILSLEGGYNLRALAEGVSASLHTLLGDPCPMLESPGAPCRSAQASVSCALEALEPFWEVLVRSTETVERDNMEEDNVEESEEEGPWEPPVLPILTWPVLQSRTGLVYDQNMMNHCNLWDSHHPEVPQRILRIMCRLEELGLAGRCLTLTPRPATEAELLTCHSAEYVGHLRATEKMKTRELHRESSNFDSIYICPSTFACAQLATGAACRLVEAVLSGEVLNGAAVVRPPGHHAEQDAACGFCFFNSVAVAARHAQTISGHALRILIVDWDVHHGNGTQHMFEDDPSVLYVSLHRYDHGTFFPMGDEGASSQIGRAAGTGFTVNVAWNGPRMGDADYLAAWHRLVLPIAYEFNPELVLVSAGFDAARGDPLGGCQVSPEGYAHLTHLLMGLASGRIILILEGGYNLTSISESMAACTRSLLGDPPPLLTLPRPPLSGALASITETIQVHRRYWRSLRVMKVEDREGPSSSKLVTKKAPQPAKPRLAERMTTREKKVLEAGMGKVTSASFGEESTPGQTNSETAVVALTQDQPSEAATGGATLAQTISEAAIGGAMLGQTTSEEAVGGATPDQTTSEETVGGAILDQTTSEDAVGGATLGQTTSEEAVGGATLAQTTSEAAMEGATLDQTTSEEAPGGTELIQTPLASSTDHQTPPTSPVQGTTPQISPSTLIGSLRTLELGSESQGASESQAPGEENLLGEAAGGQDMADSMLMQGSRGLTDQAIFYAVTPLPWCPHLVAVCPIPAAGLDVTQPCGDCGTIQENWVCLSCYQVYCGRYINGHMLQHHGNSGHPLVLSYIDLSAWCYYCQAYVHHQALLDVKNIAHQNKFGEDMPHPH

[11] = molecular target: T1, Protein deacetylase HDAC6; experiment: Inhibition of HDAC6 (unknown origin) incubated for 30 mins
[12] = Half life in C57/BI mouse at 0.5 mg/kg, iv measured upto 24 hrs by LC-MS/MS analysis; format: ADME, organism-based; details: in vivo
[13] = Oral bioavailability in C57/BI mouse at 1 mg/kg measured upto 24 hrs by LC-MS/MS analysis; format: ADME, organism-based; details: in vivo
[14] = Volume of distribution at steady state in C57/BI mouse at 1 mg/kg, po or 0.5 mg/kg, iv measured upto 24 hrs by LC-MS/MS analysis; format: ADME, organism-based; details: in vivo
[15] = test system: Sodium-dependent noradrenaline transporter; experiment: Inhibition of NET (unknown origin) at 49 uM relative to control; details: Homo sapiens
[16] = Plasma protein binding in rat assessed as unbound fraction; format: ADME, cell-free
[17] = Half life in Wistar Han rat at 1 mg/kg, po measured upto 24 hrs by LC-MS/MS analysis; format: ADME, organism-based; details: in vivo
[18] = Half life in Wistar Han rat at 0.5 mg/kg, iv measured upto 24 hrs by LC-MS/MS analysis; format: ADME, organism-based; details: in vivo
[19] = Volume of distribution at steady state in C57/BI mouse at 10 mg/kg, po or 2 mg/kg, iv measured upto 24 hrs by LC-MS/MS analysis; format: ADME, organism-based; details: in vivo
[20] = Clearance in C57/BI mouse at 2 mg/kg, iv measured upto 24 hrs by LC-MS/MS analysis; format: ADME, organism-based; details: in vivo
[21] = AUC (0 to infinity) in Wistar Han rat at 10 mg/kg, po measured upto 24 hrs by LC-MS/MS analysis; format: ADME, organism-based; set-up: dose 10 mg/kg, time < 24 hrs, route po; details: in vivo
[22] = Half life in C57/BI mouse at 2 mg/kg, iv measured upto 24 hrs by LC-MS/MS analysis; format: ADME, organism-based; details: in vivo
[23] = Half life in Wistar Han rat at 10 mg/kg, po measured upto 24 hrs by LC-MS/MS analysis; format: ADME, organism-based; details: in vivo
[24] = Half life in C57/BI mouse at 10 mg/kg, po measured upto 24 hrs by LC-MS/MS analysis; format: ADME, organism-based; details: in vivo
[25] = AUC (0 to infinity) in C57/BI mouse at 10 mg/kg, po measured upto 24 hrs by LC-MS/MS analysis; format: ADME, organism-based; set-up: time < 24 hrs, dose 10 mg/kg, route po; details: in vivo
[26] = Oral bioavailability in Wistar Han rat at 10 mg/kg measured upto 24 hrs by LC-MS/MS analysis; format: ADME, organism-based; details: in vivo
[27] = Oral bioavailability in C57/BI mouse at 10 mg/kg measured upto 24 hrs by LC-MS/MS analysis; format: ADME, organism-based; details: in vivo

inhibition [1]: Active
half-life [2]: 5.3 h
fraction unbound [3]: 0.27
AUC(0-inf) [4]: 15 µM·h
inhibition [5]: Active
clearance [6]: 2.4 mL/min/kg
bioavailability [7]: 100%
AUC(0-inf) [8]: 21 µM·h
inhibition [9]: Active
IC50 [10]: 1 nM
IC50 [11]: 27 nM
half-life [12]: 4.7 h
bioavailability [13]: 110%
Vdss [14]: 0.9 L/kg
inhibition [15]: Active
fraction unbound [16]: 0.38
half-life [17]: 10 h
half-life [18]: 7.3 h
SMILES: FC(F)c1nnc(-c2ccc(Cn3nnc(-c4ccccn4)n3)nc2)o1
Activity (THP-1): inactive

Vdss [19]: 1.6 L/kg
clearance [20]: 140 mL/min/kg
AUC(0-inf) [21]: 0.05 µM·h
half-life [22]: 0.2 h
half-life [23]: 2.1 h
half-life [24]: 1.7 h
AUC(0-inf) [25]: 0.4 µM·h
bioavailability [26]: 19%
bioavailability [27]: 12%
half-life [18]: 0.3 h
SMILES: O=C(NO)c1cnc(NC2(c3ccccc3)CCC(F)(F)CC2)nc1
